The source of these data is patent US8802720B2, “Acylamino-substituted fused cyclopentanecarboxylic acid derivatives and their use as pharmaceuticals” (SANOFI, priority 2008, dated 2014).

human Edg-2 receptor (LPA1 receptor), sequence (Q92633 whole entry): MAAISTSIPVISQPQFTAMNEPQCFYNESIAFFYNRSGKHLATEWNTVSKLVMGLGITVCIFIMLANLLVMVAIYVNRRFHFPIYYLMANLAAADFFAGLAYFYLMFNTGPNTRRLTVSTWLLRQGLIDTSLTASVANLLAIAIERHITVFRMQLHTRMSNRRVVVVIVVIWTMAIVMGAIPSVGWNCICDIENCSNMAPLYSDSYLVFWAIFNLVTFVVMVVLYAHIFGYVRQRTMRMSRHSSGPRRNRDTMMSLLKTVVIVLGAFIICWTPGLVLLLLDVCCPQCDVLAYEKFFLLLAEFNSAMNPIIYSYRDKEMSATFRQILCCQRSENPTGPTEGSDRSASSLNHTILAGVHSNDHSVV

This assay deals with human Edg-2 receptor (LPA1 receptor) (Homo sapiens, UniProt Q92633). Nature of the assay: Edg-2 receptor inhibition by FLIPR calcium fluorescence measurement (LPA-mediated calcium liberation). Type of assay: cell-based. As to conditions: CHO cells stably overexpressing human Edg-2 receptor; LPA 18:1 100 nM; fluo-4 fluorescence; triplicate; read-out: Inhibitory concentrations IC50 for inhibition of the Edg-2 receptor. The essentials:
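CHO cells stably overexpressing human Edg-2 were fluo-4 loaded and pre-incubated ~5 min with compound (≤0.3% DMSO) in HBSS/HEPES/probenecid, pH 7.5. Then LPA 18:1 at 100 nM final was added. Peak calcium fluorescence over ~3 min, baseline-corrected versus DMSO, gave % inhibition in triplicate and IC50.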
Turning to `COc1ccc(C(=O)NC2(C(=O)O)Cc3ccc(C(N)=O)cc3C2)cc1OCCc1cccc(C)c1` (stereo not drawn) [Example 219, 5-Carbamoyl-2-[4-methoxy-3-(2-m-tolyl-ethoxy)-benzoylamino]-indane-2-carboxylic acid], the IC50 lay within 1 to 30 µM. As for `COc1ncc(C(=O)NC2(C(=O)O)Cc3ccccc3C2)cc1-c1cccc(C(C)C)c1` [Example 221, 2-{[5-(3-Isopropyl-phenyl)-6-methoxy-pyridine-3-carbonyl]-amino}-indane-2-carboxylic acid], the figure is less than 0.1 µM; as for `COc1ncc(C(=O)NC2(C(=O)O)Cc3ccccc3C2)cc1-c1cccc(SC)c1` [Example 222, 2-{[6-Methoxy-5-(3-methylsulfanyl-phenyl)-pyridine-3-carbonyl]-amino}-indane-2-carboxylic acid], less than 0.1 µM. As for `COc1ncc(C(=O)NC2(C(=O)O)Cc3ccccc3C2)cc1-c1cccc(Cl)c1` [Example 223], the figure is less than 0.1 µM; as for `COc1ncc(C(=O)NC2(C(=O)O)Cc3ccccc3C2)cc1-c1cccc(C)c1` [Example 224, 2-{[6-methoxy-5-(3-methyl-phenyl)-pyridine-3-carbonyl]-amino}-indane-2-carboxylic acid], less than 0.1 µM; as for `COc1ncc(C(=O)NC2(C(=O)O)Cc3ccccc3C2)cc1-c1ccccc1Cl` [Example 225], 0.1 to 1 µM. Turning to `COc1ncc(C(=O)NC2(C(=O)O)Cc3ccccc3C2)cc1-c1ccc(Cl)cc1` [Example 226], the IC50 was less than 0.1 µM. As to `COc1ncc(C(=O)NC2(C(=O)O)Cc3ccccc3C2)cc1-c1cccc(Cl)c1Cl` [Example 228], the IC50 was less than 0.1 µM.

Consider `COc1ncc(C(=O)NC2(C(=O)O)Cc3ccccc3C2)cc1-c1cc(F)c(F)c(F)c1` [Example 229], for which the IC50 was less than 0.1 µM. As for `COc1ncc(C(=O)NC2(C(=O)O)Cc3ccccc3C2)cc1-c1cccc(C(F)(F)F)c1F` [Example 230], the figure is less than 0.1 µM; as for `COc1ncc(C(=O)NC2(C(=O)O)Cc3ccccc3C2)cc1-c1cccc(NS(=O)(=O)N(C)C)c1` [Example 231], less than 0.1 µM. With `CCSc1cccc(-c2cc(C(=O)NC3(C(=O)O)Cc4ccccc4C3)cnc2OC)c1` [Example 233], the IC50 is less than 0.1 µM. The value for `COc1ncc(C(=O)NC2(C(=O)O)Cc3ccccc3C2)cc1-c1cccc(OC(F)(F)F)c1` [Example 234] was less than 0.1 µM; that for `COc1ncc(C(=O)NC2(C(=O)O)Cc3ccccc3C2)cc1-c1cc(Cl)cc(C(F)(F)F)c1` [Example 235] was less than 0.1 µM. As for `COc1ncc(C(=O)NC2(C(=O)O)Cc3ccccc3C2)cc1-c1cccc(C#N)c1` [Example 236], the figure is less than 0.1 µM; as for `CCS(=O)(=O)c1cccc(-c2cc(C(=O)NC3(C(=O)O)Cc4ccccc4C3)cnc2OC)c1` [Example 237, 2-{[5-(3-Ethanesulfonyl-phenyl)-6-methoxy-pyridine-3-carbonyl]-amino}-indane-2-carboxylic acid], 0.1 to 1 µM. The value for `COc1ccc(C(=O)NC2(C(=O)O)Cc3ccccc3C2)cc1Oc1ccccc1C` [Example 238, 2-(4-Methoxy-3-o-tolyloxy-benzoylamino)-indane-2-carboxylic acid] was 0.1 to 1 µM.

On to `COc1ccc(C(=O)NC2(C(=O)O)Cc3ccccc3C2)cc1Oc1cccc(C)c1` [Example 239, 2-(4-Methoxy-3-m-tolyloxy-benzoylamino)-indane-2-carboxylic acid], for which the IC50 lay within 1 to 30 µM.

Turning to `COc1ccc(C(=O)NC2(C(=O)O)Cc3ccccc3C2)cc1C(=O)c1ccccc1C` [Example 240, 2-[4-Methoxy-3-(2-methyl-benzoyl)-benzoylamino]-indane-2-carboxylic acid], the IC50 was 1 to 30 µM. As for `COc1ccc(C(=O)NC2(C(=O)O)Cc3ccccc3C2)cc1C(O)c1ccccc1C` (stereo not drawn) [Example 241, 2-[3-(Hydroxy-o-tolyl-methyl)-4-methoxy-benzoylamino]-indane-2-carboxylic acid], the figure is 1 to 30 µM; as for `COc1ccc(C(=O)NC2(C(=O)O)Cc3ccccc3C2)cc1Cc1ccccc1C` [Example 242, 2-[4-Methoxy-3-(2-methyl-benzyl)-benzoylamino]-indane-2-carboxylic acid], 0.1 to 1 µM. Turning to `COc1ccc(C(=O)NC2(C(=O)O)Cc3ccccc3C2)cc1Cc1ccccc1` [Example 243, 2-[4-Methoxy-3-benzyl-benzoylamino]-indane-2-carboxylic acid], the IC50 fell in the range of 1 to 30 µM. As for `COc1ccc(C(=O)NC2(C(=O)O)Cc3ccccc3C2)cc1Cc1cccc(C)c1` [Example 244, 2-[4-Methoxy-3-(3-methyl-benzyl)-benzoylamino]-indane-2-carboxylic acid], the figure is 0.1 to 1 µM. The value for `COc1ccc(C(=O)NC2(C(=O)O)Cc3ccccc3C2)cc1Cc1ccc(C)cc1` [Example 245, 2-[4-Methoxy-3-(4-methyl-benzyl)-benzoylamino]-indane-2-carboxylic acid] was less than 0.1 µM. In the case of `COc1ccc(C(=O)NC2(C(=O)O)Cc3ccccc3C2)cc1OCCc1cccc(CCN)c1` [Example 246, 2-(3-{2-[3-(2-Amino-ethyl)-phenyl]-ethoxy}-4-methoxy-benzoylamino)-indane-2-carboxylic acid], the IC50 was 1 to 30 µM. Consider `COc1ccc(C(=O)NC2(C(=O)O)Cc3ccccc3C2)cc1OCCc1cccc(CCNC(C)=O)c1` [Example 247, 2-(3-{2-[3-(2-Acetylamino-ethyl)-phenyl]-ethoxy}-4-methoxy-benzoylamino)-indane-2-carboxylic acid], for which the IC50 lay in the range of 0.1 to 1 µM. In the case of `COc1ccc(C(=O)NC2(C(=O)O)Cc3ccccc3C2)cc1OCCc1cccc(CC(N)=O)c1` [Example 248, 2-{3-[2-(3-Carbamoylmethyl-phenyl)-ethoxy]-4-methoxy-benzoylamino}-indane-2-carboxylic acid], the IC50 was less than 0.1 µM. The value for `COc1ccc(C(=O)NC2(C(=O)O)Cc3ccccc3C2)cc1OCCc1cccc(CC(C)(C)O)c1` [Example 249, 2-(3-{2-[3-(2-Hydroxy-2-methyl-propyl)-phenyl]-ethoxy}-4-methoxy-benzoylamino)-indane-2-carboxylic acid] was less than 0.1 µM; that for `COc1ccc(C(=O)NC2(C(=O)O)Cc3ccccc3C2)cc1OCC1(c2ccccc2)COC1` [Example 250, 2-[4-Methoxy-3-(3-phenyl-oxetan-3-ylmethoxy)-benzoylamino]-indane-2-carboxylic acid] was less than 0.1 µM; that for `COc1ccc(C(=O)NC2(C(=O)O)Cc3ccccc3C2)cc1OCCc1cccc(O)c1` [Example 251, 2-{3-[2-(3-Hydroxy-phenyl)-ethoxy]-4-methoxy-benzoylamino}-indane-2-carboxylic acid] was 1 to 30 µM. The value for `COc1cc(C(=O)NC2(C(=O)O)Cc3ccccc3C2)ccc1OCCc1cccc(C)c1` [Example 252, 2-[3-Methoxy-4-(2-m-tolyl-ethoxy)-benzoylamino]-indane-2-carboxylic acid] was 0.1 to 1 µM.

Regarding `Cc1cccc(CCOc2cc(C(=O)NC3(C(=O)O)Cc4ccccc4C3)ccc2OCc2ccccc2)c1` [Example 253, 2-[4-Benzyloxy-3-(2-m-tolyl-ethoxy)-benzoylamino]-indane-2-carboxylic acid], the IC50 is less than 0.1 µM. In the case of `Cc1cccc(CCOc2cc(C(=O)NC3(C(=O)O)Cc4ccccc4C3)ccc2O)c1` [Example 254, 2-[4-Hydroxy-3-(2-m-tolyl-ethoxy)-benzoylamino]-indane-2-carboxylic acid], the IC50 lay within 1 to 30 µM. As to `Cc1cccc(CCOc2cc(C(=O)NC3(C(=O)O)Cc4ccccc4C3)ccc2OC(C)C)c1` [Example 255, 2-[4-Isopropoxy-3-(2-m-tolyl-ethoxy)-benzoylamino]-indane-2-carboxylic acid], the IC50 was less than 0.1 µM.

In the case of `COCCOc1ccc(C(=O)NC2(C(=O)O)Cc3ccccc3C2)cc1OCCc1cccc(C)c1` [Example 256], the IC50 is less than 0.1 µM.

As for `Cc1cccc(CCOc2cc(C(=O)NC3(C(=O)O)Cc4ccccc4C3)ccc2OCC2CCCCC2)c1` [Example 257], the IC50 was less than 0.1 µM. As to `Cc1cccc(CCOc2cc(C(=O)NC3(C(=O)O)Cc4ccccc4C3)ccc2OCC2CCOC2)c1` (stereo not drawn) [Example 258], the IC50 is less than 0.1 µM. As for `Cc1cccc(CCOc2cc(C(=O)NC3(C(=O)O)Cc4ccccc4C3)ccc2OCCOC(C)(C)C)c1` [Example 259], the figure is less than 0.1 µM. The value for `Cc1cccc(CCOc2cc(C(=O)NC3(C(=O)O)Cc4ccccc4C3)ccc2OCCC(F)(F)F)c1` [Example 260] was 0.1 to 1 µM; that for `Cc1cccc(CCOc2cc(C(=O)NC3(C(=O)O)Cc4ccccc4C3)ccc2OCCC(C)(C)C)c1` [Example 261] was 0.1 to 1 µM; that for `Cc1cccc(CCOc2cc(C(=O)NC3(C(=O)O)Cc4ccccc4C3)ccc2OCC2CCC2)c1` [Example 262] was less than 0.1 µM. The value for `CCCCCOc1ccc(C(=O)NC2(C(=O)O)Cc3ccccc3C2)cc1OCCc1cccc(C)c1` [Example 263] was less than 0.1 µM; that for `Cc1cccc(CCOc2cc(C(=O)NC3(C(=O)O)Cc4ccccc4C3)ccc2OCC2CCCCO2)c1` (stereo not drawn) [Example 264] was less than 0.1 µM; that for `Cc1cccc(CCOc2cc(C(=O)NC3(C(=O)O)Cc4ccccc4C3)ccc2OCCN(C)C)c1` [Example 265] was 0.1 to 1 µM. Turning to `Cc1cccc(CCOc2cc(C(=O)NC3(C(=O)O)Cc4ccccc4C3)ccc2OCC2CC2)c1` [Example 266, 2-[4-cyclopropylmethoxy-3-(2-m-tolyl-ethoxy)-benzoylamino]-indane-2-carboxylic acid], the IC50 was less than 0.1 µM. The value for `CSCCOc1ccc(C(=O)NC2(C(=O)O)Cc3ccccc3C2)cc1OCCc1cccc(C)c1` [Example 267] was less than 0.1 µM; that for `Cc1cccc(CCOc2cc(C(=O)NC3(C(=O)O)Cc4ccccc4C3)ccc2OCCF)c1` [Example 268] was less than 0.1 µM; that for `C=CCOc1ccc(C(=O)NC2(C(=O)O)Cc3ccccc3C2)cc1OCCc1cccc(C)c1` [Example 269] was less than 0.1 µM.
